Earlier results, collected in patent publication US11491230B2, “Medication” (priority 2015, dated 2022).

Key:
[1] = test system: estrogen receptor-positive and estrogen receptor-negative breast cancer cell lines; conditions: inducing apoptosis in a concentration-dependent manner
[2] = test system: nontumorigenic mammary cells
PC-3 = PC-3 (Ruiz et al. 1999)
[3] = target: T1, androgen receptor in the prostate gland (Homo sapiens, UniProt P10275)
T1 construct: host or cells: prostate gland
T1 sequence (P10275 1-920): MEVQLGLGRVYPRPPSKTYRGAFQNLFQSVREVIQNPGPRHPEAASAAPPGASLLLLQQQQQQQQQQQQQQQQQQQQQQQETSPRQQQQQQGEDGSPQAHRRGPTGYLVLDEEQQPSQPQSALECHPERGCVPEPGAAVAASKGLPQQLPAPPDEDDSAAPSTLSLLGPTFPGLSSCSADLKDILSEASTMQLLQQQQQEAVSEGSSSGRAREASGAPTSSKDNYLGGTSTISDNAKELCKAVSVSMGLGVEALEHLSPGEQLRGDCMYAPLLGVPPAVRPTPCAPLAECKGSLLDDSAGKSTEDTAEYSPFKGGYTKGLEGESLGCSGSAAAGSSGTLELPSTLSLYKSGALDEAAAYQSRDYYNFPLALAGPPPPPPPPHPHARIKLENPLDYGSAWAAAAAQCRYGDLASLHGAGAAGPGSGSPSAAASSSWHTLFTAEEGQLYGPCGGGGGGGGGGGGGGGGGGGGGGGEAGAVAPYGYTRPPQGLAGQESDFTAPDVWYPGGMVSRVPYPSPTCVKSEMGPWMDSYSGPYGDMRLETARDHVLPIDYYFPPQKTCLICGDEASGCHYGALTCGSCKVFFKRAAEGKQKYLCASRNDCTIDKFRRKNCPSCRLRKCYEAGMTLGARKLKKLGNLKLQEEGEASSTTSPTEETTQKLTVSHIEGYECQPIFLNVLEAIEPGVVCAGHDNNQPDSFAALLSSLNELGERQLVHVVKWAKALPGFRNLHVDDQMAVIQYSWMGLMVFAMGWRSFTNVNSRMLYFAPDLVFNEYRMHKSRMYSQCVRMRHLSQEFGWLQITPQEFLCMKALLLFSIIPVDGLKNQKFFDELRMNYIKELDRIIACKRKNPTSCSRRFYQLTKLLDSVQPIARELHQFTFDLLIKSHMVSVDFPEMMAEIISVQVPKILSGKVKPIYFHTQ

CB1 receptor = CB1 receptor (Homo sapiens, UniProt P21554)
Chain of CB1 receptor (P21554 whole entry): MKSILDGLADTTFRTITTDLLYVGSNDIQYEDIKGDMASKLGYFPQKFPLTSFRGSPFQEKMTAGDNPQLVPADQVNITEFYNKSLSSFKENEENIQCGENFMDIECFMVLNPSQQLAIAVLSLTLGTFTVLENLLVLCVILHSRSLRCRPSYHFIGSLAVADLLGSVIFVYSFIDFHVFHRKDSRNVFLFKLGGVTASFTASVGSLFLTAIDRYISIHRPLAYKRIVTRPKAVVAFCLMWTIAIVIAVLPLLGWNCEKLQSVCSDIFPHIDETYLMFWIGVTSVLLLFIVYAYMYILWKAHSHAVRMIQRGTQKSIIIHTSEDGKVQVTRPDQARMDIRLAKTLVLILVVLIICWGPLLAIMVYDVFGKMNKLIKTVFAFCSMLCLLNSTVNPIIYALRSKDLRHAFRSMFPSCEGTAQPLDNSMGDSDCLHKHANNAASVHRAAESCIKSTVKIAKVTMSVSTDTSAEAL

[4] = not given; remark: listed apart in the source

Compound: C=C(C)[C@@H]1CCC(C)=C[C@H]1c1c(O)cc(CCCCC)cc1O [CBD, Cannabidiol]
- survival of breast cancer cell lines [1]: inhibited the survival
- effect on nontumorigenic mammary cells [2]: little effect
- affinity to cannabinoid receptors (cannabinoid receptors): low affinity

Compound: CCCCCc1cc(O)c2c(c1)OC(C)(C)[C@@H]1CCC(C)=C[C@@H]21 [THC, Tetrahydrocannabinol]
- pain sensitivity (cold-pressor test after administration, dronabinol oral capsules 10 mg or 20 mg): decreased pain sensitivity
- duration of effect (dronabinol versus smoked marijuana): lasted longer than smoked marijuana
- time until pain reduction effects were felt after administration (on the average): 180 min
- apoptosis (PC-3): causes apoptosis
- specific binding of dihydroxytestosterone to the androgen receptor [3]: inhibits specific binding

Compound: CCCc1cc(O)c2c(c1)OC(C)(C)[C@@H]1CCC(C)=C[C@@H]21 [THCV, Tetrahydrocannabivarin]
- activity at CB1 receptor (CB1 receptor): CB1 receptor antagonist

Compound: vitamin E
- reduction in breast cancer incidence ([4]; pre-menopausal women with a family history of breast cancer, highest quantity of vitamin E consumed): 43%
- breast cancer risk reduction ([4]; women without a family history of breast cancer): 16%
